Test results published in US20150105252A1, “SUBSTITUTED PYRAZOLES AS HERBICIDES” (E I DU PONT DE NEMOURS AND COMPANY, priority 2013, published 2015).

Key:
johnsongrass = assay: Test C postemergence; assay type: in vivo, Sorghum halepense; settings: for Plant response rating (scale of 0 to 100), Johnsongrass: 16 g ai/ha; for Johnsongrass plant response rating: scale 0 to 100; for Plant response rating (scale of 0 to 100 where 0 is no effect and 100 is complete control), Johnsongrass: visually evaluated after 13 to 15 days
Summary of the method: (§1)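 In this greenhouse assay, seeded soil (loam plus sand) or emerged seedlings in peat-vermiculite medium were treated with formulated compound. Roughly two weeks later (13–15 days), each species was scored visually relative to controls, from 0 for no effect to 100 for complete control.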

velvetleaf [1] = assay: Test A preemergence; assay type: in vivo, Abutilon theophrasti
Summary of the method: (§2)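 Growth medium: loam soil blended with sand. Preemergence treatment used a directed soil spray right after planting; postemergence treatment targeted seedlings at one to two leaves (2–10 cm height). Response was judged by eye relative to untreated plants about 10 days later on a 0–100 control scale.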

rice = assay: Test B flood; assay type: in vivo, Oryza sativa; settings: 250 g ai/ha, visual rating on 0 to 100 scale (0 no effect, 100 complete control), 13 to 15 days
Summary of the method: (§3)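 Visual ratings (0 = no effect, 100 = complete control) versus untreated controls were taken 13–15 days after treatment of greenhouse plants. Treatment was added to paddy water held at 3 cm depth on 2-leaf-stage seedlings.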

sedge, umbrella = assay: Test B flood; assay type: in vivo, Cyperus difformis; settings: 250 g ai/ha, visual rating on 0 to 100 scale (0 no effect, 100 complete control), 13 to 15 days
Summary of the method: as §3

foxtail, giant = assay: Test A preemergence; assay type: in vivo, Setaria faberii
Summary of the method: as §2

velvetleaf [2] = assay: Test C postemergence; assay type: in vivo, Abutilon theophrasti; settings: for Plant response rating (scale of 0 to 100), Velvetleaf / Plant response rating (scale of 0 to 100 where 0 is no effect and 100 is complete control), Velvetleaf: Postemergence; for Plant response rating (scale of 0 to 100), Velvetleaf: 16 g ai/ha; for Velvetleaf plant response rating / Plant response rating, Velvetleaf: postemergence; for Velvetleaf plant response rating: 62 g ai/ha, scale 0 to 100; for Plant response rating (scale of 0 to 100 where 0 is no effect and 100 is complete control), Velvetleaf: 31 g ai/ha, visually evaluated after 13 to 15 days
Summary of the method: as §1

velvetleaf [3] = assay: Test A postemergence; assay type: in vivo, Abutilon theophrasti
Summary of the method: as §2

lambsquarters = assay: Test C postemergence; assay type: in vivo, Chenopodium album; settings: for Plant response rating (scale of 0 to 100), Lambsquarters: 16 g ai/ha; for Lambsquarters plant response rating: scale 0 to 100; for Plant response rating (scale of 0 to 100 where 0 is no effect and 100 is complete control), Lambsquarters: visually evaluated after 13 to 15 days
Summary of the method: as §1

corn = assay: Test A preemergence; assay type: in vivo, Zea mays
Summary of the method: as §2

wheat = assay: Test C postemergence; assay type: in vivo, Triticum aestivum; settings: for Plant response rating (scale of 0 to 100), Wheat / Plant response rating (scale of 0 to 100 where 0 is no effect and 100 is complete control), Wheat: Postemergence; for Plant response rating (scale of 0 to 100), Wheat: 16 g ai/ha; for Wheat plant response rating / Plant response rating, Wheat: postemergence; for Wheat plant response rating: 62 g ai/ha, scale 0 to 100; for Plant response rating (scale of 0 to 100 where 0 is no effect and 100 is complete control), Wheat: 31 g ai/ha, visually evaluated after 13 to 15 days
Summary of the method: as §1

waterhemp = assay: Test C postemergence; assay type: in vivo, Amaranthus rudis; settings: for Waterhemp plant response rating / Plant response rating, Waterhemp: postemergence; for Waterhemp plant response rating: 62 g ai/ha, scale 0 to 100; for Plant response rating (scale of 0 to 100 where 0 is no effect and 100 is complete control), Waterhemp: 31 g ai/ha, visually evaluated after 13 to 15 days
From the text: Seeds of plant species selected from blackgrass (Alopecurus myosuroides), ryegrass, Italian (Italian ryegrass, Lolium multiflorum), wheat (winter wheat, Triticum aestivum), galium (catchweed bedstraw, Galium aparine), corn (Zea mays), crabgrass, large (large crabgrass, Digitaria sanguinalis), foxtail, giant (giant foxtail, Setaria faberii), johnsongrass (Sorghum halepense), lambsquarters (Chenopodium album), morningglory (Ipomoea coccinea), nutsedge, yellow (yellow nutsedge, Cyperus esculentus), pigweed (redroot pigweed, Amaranthus retroflexus), ragweed (common ragweed, Ambrosia elation), soybean (Glycine max), barnyardgrass (Echinochloa crus-galli), oilseed rape (Brassica napus), waterhemp (common waterhemp, Amaranthus rudis), oat, wild (wild oat, Avena fatua), kochia (Kochia scoparia), Surinam grass (Brachiaria decumbens), foxtail, green (green foxtail, Setaria viridis), goosegrass (Eleusine indica), bromegrass, downy (downy bromegrass, Bromus tectorum), nightshade (eastern black nightshade, Solanum ptycanthum), cocklebur (common cocklebur, Xanthium strumarium), cupgrass, woolly (woolly cupgrass, Eriochloa villosa), bermudagrass (Cynodon dactylon), sunflower, (common oilseed sunflower, Helianthus annuus), Russian thistle (Salsola kali), and velvetleaf (Abutilon theophrasti) were planted into a blend of loam soil and sand and treated preemergence with test chemicals formulated in a non-phytotoxic solvent mixture which included a surfactant.
At the same time, plants selected from these crop and weed species and also chickweed (common chickweed, Stellaria media), canarygrass (littleseed canarygrass, Phalaris minor), and deadnettle (henbit deadnettle, Lamium amplexicaule), were planted in pots containing Redi-Earth® planting medium (Scotts Company, 14111 Scottslawn Road, Marysville, Ohio 43041) comprising spaghnum peat moss, vermiculite, wetting agent and starter nutrients and treated with postemergence applications of test chemicals formulated in the same manner. Plants ranged in height from 2 to 18 cm (1- to 4-leaf stage) for postemergence treatments. Treated plants and controls were maintained in a greenhouse for 13 to 15 days, after which time all species were compared to controls and visually evaluated. Plant response ratings, summarized in Table C, are based on a scale of 0 to 100 where 0 is no effect and 100 is complete control. A dash (-) response means no test result.

velvetleaf [4] = assay: Test C preemergence; assay type: in vivo, Abutilon theophrasti
Summary of the method: as §1

pigweed = assay: Test A postemergence; assay type: in vivo, Amaranthus retroflexus
Summary of the method: as §2

crabgrass, large = assay: Test C preemergence; assay type: in vivo, Digitaria sanguinalis
Summary of the method: as §1

[5] = postemergence, 125 g ai/ha, scale 0 to 100, 0 no effect, 100 complete control
[6] = Preemergence, 500 g ai/ha, 0 to 100 scale, 0 no effect, 100 complete control
[7] = preemergence, 125 g ai/ha, visual injury, 0 to 100 scale, approx. 10 days
[8] = 125 g ai/ha, scale 0 to 100, 0 no effect, 100 complete control
[9] = Postemergence, 500 g ai/ha, visual rating after approx. 10 days, 0 to 100 scale (0 no effect, 100 complete control)
[10] = postemergence, 125 g ai/ha, about 10 days, visual rating on 0 to 100 scale (0 no effect, 100 complete control)
[11] = Preemergence, 16 g ai/ha, scale 0 to 100
[12] = preemergence, 31 g ai/ha, scale 0 to 100 (0 no effect, 100 complete control), 13 to 15 days
[13] = preemergence, 62 g ai/ha, 13 to 15 days, scale 0 to 100, 0 = no effect, 100 = complete control
[14] = preemergence, 125 g ai/ha, scale 0 to 100, 0 is no effect, 100 is complete control
[15] = postemergence, 250 g ai/ha, scale 0 to 100 (0 no effect, 100 complete control)
[16] = preemergence, 500 g ai/ha, visual injury after approx. 10 days, 0 to 100 scale (0 no effect, 100 complete control)
[17] = 250 g ai/ha, scale 0 to 100 (0 no effect, 100 complete control)
[18] = preemergence, 31 g ai/ha, visual rating, scale 0 to 100 (0 no effect, 100 complete control), 13 to 15 days
[19] = preemergence, 62 g ai/ha, scale 0 to 100 (0 no effect, 100 complete control), 13 to 15 days

Row | SMILES | Plant response rating, Johnsongrass (johnsongrass; [5]) | Velvetleaf plant response rating (velvetleaf [1]; [7]) | Plant response rating, Rice (rice) | Plant response rating, Sedge, Umbrella (sedge, umbrella) | Foxtail, Giant plant response rating (foxtail, giant; [7]) | Velvetleaf plant response rating (velvetleaf [2]) | Plant response rating, Velvetleaf (velvetleaf [2]; [8]) | Velvetleaf plant response rating (velvetleaf [3]; [9]) | Velvetleaf plant response rating (velvetleaf [3]; [10]) | Lambsquarters plant response rating (lambsquarters; postemergence, 62 g ai/ha) | Plant response rating, Lambsquarters (lambsquarters; [5]) | Corn plant response rating (corn; [7]) | Wheat plant response rating (wheat) | Plant response rating, Wheat (wheat; [8]) | Waterhemp plant response rating (waterhemp) | Plant response rating, Waterhemp (waterhemp; [8]) | Velvetleaf plant response rating (velvetleaf [4]; [14]) | Pigweed plant response rating (pigweed; [9]) | Pigweed plant response rating (pigweed; [10]) | Crabgrass, Large plant response rating (crabgrass, large; [14]) | further results
1 | CCCNC(=O)c1cc(CC)n(Cc2ccnc(C(F)(F)F)c2)n1 [Compound 75] | 10 | 80 | 35 | 85 | 100 | 35 | 40 | 100 | 90 | 85 | 90 | 80 | 5 | 5 | 45 | 75 | 100 | 100 | 100 | 100 | Plant response rating (scale of 0 to 100), Johnsongrass (johnsongrass; Postemergence): 10; Johnsongrass plant response rating (johnsongrass; Postemergence, 31 g ai/ha): 10; Johnsongrass plant response rating (johnsongrass; postemergence, 62 g ai/ha): 10; Velvetleaf plant response rating (velvetleaf [1]; [6]): 100; Foxtail, Giant plant response rating (foxtail, giant; [6]): 100; Plant response rating (scale of 0 to 100), Velvetleaf (velvetleaf [2]): 25; Plant response rating (scale of 0 to 100), Lambsquarters (lambsquarters; Postemergence): 70; Lambsquarters plant response rating (lambsquarters; Postemergence, 31 g ai/ha): 70; Corn plant response rating (corn; [6]): 90; Plant response rating (scale of 0 to 100), Wheat (wheat): 0; Plant response rating, Velvetleaf (velvetleaf [4]; [11]): 60; Velvetleaf plant response rating (velvetleaf [4]; [12]): 75; Plant response rating, Velvetleaf (velvetleaf [4]; [13]): 100; Plant response rating, Crabgrass, Large (crabgrass, large; [11]): 100; Crabgrass, Large plant response rating (crabgrass, large; [12]): 100; Plant response rating, Crabgrass, Large (crabgrass, large; [13]): 100
2 | CCc1cc(-c2ccc(C(F)(F)F)cc2)nn1Cc1ccnc(C(F)(F)F)c1 [Compound 110] | 75 | 90 | 35 | 80 | 100 | 50 | 70 | 100 | 90 | 75 | 85 | 80 | 5 | 5 | 100 | 100 | 70 | 100 | 100 | 100 | Plant response rating (scale of 0 to 100 where 0 is no effect and 100 is complete control), Johnsongrass (johnsongrass; Postemergence, 31 g ai/ha): 40; Plant response rating, Johnsongrass (johnsongrass; [15]): 90; Velvetleaf plant response rating (velvetleaf [1]; [16]): 100; Foxtail, Giant plant response rating (foxtail, giant; [16]): 100; Plant response rating (scale of 0 to 100 where 0 is no effect and 100 is complete control), Velvetleaf (velvetleaf [2]): 30; Plant response rating, Velvetleaf (velvetleaf [2]; [17]): 75; Plant response rating (scale of 0 to 100 where 0 is no effect and 100 is complete control), Lambsquarters (lambsquarters; Postemergence, 31 g ai/ha): 40; Plant response rating, Lambsquarters (lambsquarters; [15]): 98; Corn plant response rating (corn; [16]): 90; Plant response rating (scale of 0 to 100 where 0 is no effect and 100 is complete control), Wheat (wheat): 5; Plant response rating, Wheat (wheat; [17]): 5; Plant response rating (scale of 0 to 100 where 0 is no effect and 100 is complete control), Waterhemp (waterhemp; Postemergence): 100; Plant response rating, Waterhemp (waterhemp; [17]): 100; Plant response rating (scale of 0 to 100), Velvetleaf (velvetleaf [4]; Preemergence, 250 g ai/ha): 75; Velvetleaf plant response rating (velvetleaf [4]; [18]): 50; Velvetleaf plant response rating (velvetleaf [4]; [19]): 50; Plant response rating (scale of 0 to 100), Crabgrass, Large (crabgrass, large; Preemergence, 250 g ai/ha): 100; Crabgrass, Large plant response rating (crabgrass, large; [18]): 95; Crabgrass, Large plant response rating (crabgrass, large; [19]): 98
3 | CCONC(=O)c1cc(CC)n(Cc2ccnc(C(F)(F)F)c2)n1 [Compound 77] | 5 | 20 | 20 | 80 | 100 | 15 | 20 | 100 | 80 | 35 | 70 | 10 | 5 | 5 | 10 | 65 | 100 | 100 | 100 | 100 | Plant response rating (scale of 0 to 100), Johnsongrass (johnsongrass; Postemergence): 5; Plant response rating (scale of 0 to 100 where 0 is no effect and 100 is complete control), Johnsongrass (johnsongrass; Postemergence, 31 g ai/ha): 5; Johnsongrass plant response rating (johnsongrass; postemergence, 62 g ai/ha): 5; Velvetleaf plant response rating (velvetleaf [1]; [6]): 80; Foxtail, Giant plant response rating (foxtail, giant; [6]): 100; Plant response rating (scale of 0 to 100), Velvetleaf (velvetleaf [2]): 10; Plant response rating (scale of 0 to 100 where 0 is no effect and 100 is complete control), Velvetleaf (velvetleaf [2]): 15; Plant response rating (scale of 0 to 100), Lambsquarters (lambsquarters; Postemergence): 15; Plant response rating (scale of 0 to 100 where 0 is no effect and 100 is complete control), Lambsquarters (lambsquarters; Postemergence, 31 g ai/ha): 35; Corn plant response rating (corn; [6]): 30; Plant response rating (scale of 0 to 100), Wheat (wheat): 0; Plant response rating (scale of 0 to 100 where 0 is no effect and 100 is complete control), Wheat (wheat): 0; Plant response rating (scale of 0 to 100), Waterhemp (waterhemp; Postemergence, 16 g ai/ha): 10; Plant response rating (scale of 0 to 100 where 0 is no effect and 100 is complete control), Waterhemp (waterhemp; Postemergence): 10; Plant response rating, Velvetleaf (velvetleaf [4]; [11]): 30; Velvetleaf plant response rating (velvetleaf [4]; [12]): 35; Plant response rating, Velvetleaf (velvetleaf [4]; [13]): 60; Plant response rating, Crabgrass, Large (crabgrass, large; [11]): 60; Crabgrass, Large plant response rating (crabgrass, large; [12]): 85; Plant response rating, Crabgrass, Large (crabgrass, large; [13]): 100
